Results taken from ChEMBL document CHEMBL2440076, “New triarylpyrazoles as broad-spectrum anticancer agents: design, synthesis, and biological evaluation” (Eur J Med Chem, 2013).

What was measured:
T47D = assay: Growth inhibition of human T47D cells assessed as cell growth at 10 uM after 48 hrs by sulforhodamine B assay; format: functional; conditions: read-out: Activity
PC-3 = assay: Growth inhibition of human PC3 cells assessed as cell growth at 10 uM after 48 hrs by sulforhodamine B assay; format: functional; conditions: PC-3, 48 h, read-out: Activity
CAKI-1 = assay: Growth inhibition of human CAKI-1 cells assessed as cell growth at 10 uM after 48 hrs by sulforhodamine B assay; format: functional; conditions: CAKI-1, 48 h, read-out: Activity
HT-29 = assay: Growth inhibition of human HT-29 cells after 48 hrs by sulforhodamine B assay; format: functional; conditions: HT-29, 48 h
KM12 = assay: Growth inhibition of human KM12 cells after 48 hrs by sulforhodamine B assay; format: functional, cell-based; conditions: KM12, 48 h
COLO 205 = assay: Growth inhibition of human COLO205 cells after 48 hrs by sulforhodamine B assay; format: functional; conditions: COLO 205, 48 h
NCI-H23 = assay: Growth inhibition of human NCI-H23 cells after 48 hrs by sulforhodamine B assay; format: functional; conditions: NCI-H23, 48 h
NCI-H226 = assay: Growth inhibition of human NCI-H226 cells after 48 hrs by sulforhodamine B assay; format: functional; conditions: NCI-H226, 48 h
CCRF-CEM [1] = assay: Growth inhibition of human CCRF-CEM cells after 48 hrs by sulforhodamine B assay; format: functional
RXF 393 [2] = assay: Growth inhibition of human RXF393 cells assessed as cell growth at 10 uM after 48 hrs by sulforhodamine B assay; format: functional; conditions: RXF 393, 48 h, read-out: Activity
786-0 = assay: Growth inhibition of human 786-0 cells assessed as cell growth at 10 uM after 48 hrs by sulforhodamine B assay; format: functional; conditions: 786-0, 48 h, read-out: Activity
A498 = assay: Growth inhibition of human A498 cells assessed as cell growth at 10 uM after 48 hrs by sulforhodamine B assay; format: functional; conditions: A498, 48 h, read-out: Activity
OVCAR-5 [3] = assay: Growth inhibition of human OVCAR5 cells assessed as cell growth at 10 uM after 48 hrs by sulforhodamine B assay; format: functional; conditions: OVCAR-5, 48 h, read-out: Activity
OVCAR-8 = assay: Growth inhibition of human OVCAR8 cells assessed as cell growth at 10 uM after 48 hrs by sulforhodamine B assay; format: functional; conditions: OVCAR-8, 48 h, read-out: Activity
SK-MEL-5 [4] = assay: Growth inhibition of human SK-MEL-5 cells assessed as cell growth at 10 uM after 48 hrs by sulforhodamine B assay; format: functional; conditions: SK-MEL-5, 48 h, read-out: Activity
SK-MEL-2 = assay: Growth inhibition of human SK-MEL-2 cells assessed as cell growth at 10 uM after 48 hrs by sulforhodamine B assay; format: functional; conditions: SK-MEL-2, 48 h, read-out: Activity
Malme-3M = assay: Growth inhibition of human MALME-3M cells assessed as cell growth at 10 uM after 48 hrs by sulforhodamine B assay; format: functional; conditions: read-out: Activity
LOX IMVI = assay: Growth inhibition of human LOXIMVI cells assessed as cell growth at 10 uM after 48 hrs by sulforhodamine B assay; format: functional; conditions: read-out: Activity
U-251 = assay: Growth inhibition of human U251 cells assessed as cell growth at 10 uM after 48 hrs by sulforhodamine B assay; format: functional; conditions: U-251, 48 h, read-out: Activity
HCT-15 = assay: Growth inhibition of human HCT15 cells assessed as cell growth at 10 uM after 48 hrs by sulforhodamine B assay; format: functional; conditions: HCT-15, 48 h, read-out: Activity
[5] = Growth inhibition of human HCC2998 cells assessed as cell growth at 10 uM after 48 hrs by sulforhodamine B assay; format: functional; conditions: HCC 2998, 48 h, read-out: Activity
NCI-H322M = assay: Growth inhibition of human NCI-H322M cells assessed as cell growth at 10 uM after 48 hrs by sulforhodamine B assay; format: functional; conditions: read-out: Activity
BT-549 = assay: Growth inhibition of human BT549 cells after 48 hrs by sulforhodamine B assay; format: functional; conditions: BT-549, 48 h
MCF7 = assay: Growth inhibition of human MCF7 cells after 48 hrs by sulforhodamine B assay; format: functional; conditions: MCF7, 48 h
DU-145 = assay: Growth inhibition of human DU145 cells after 48 hrs by sulforhodamine B assay; format: functional; conditions: DU-145, 48 h
RXF 393 [6] = assay: Growth inhibition of human RXF393 cells after 48 hrs by sulforhodamine B assay; format: functional; conditions: RXF 393, 48 h
OVCAR-5 [7] = assay: Growth inhibition of human OVCAR5 cells after 48 hrs by sulforhodamine B assay; format: functional; conditions: OVCAR-5, 48 h
SK-MEL-5 [8] = assay: Growth inhibition of human SK-MEL-5 cells after 48 hrs by sulforhodamine B assay; format: functional; conditions: SK-MEL-5, 48 h
UACC-257 = assay: Growth inhibition of human UACC257 cells after 48 hrs by sulforhodamine B assay; format: functional; conditions: UACC-257, 48 h
MDA-MB-435 = assay: Growth inhibition of human MDA-MB-435 cells after 48 hrs by sulforhodamine B assay; format: functional, cell-based; conditions: MDA-MB-435, 48 h
SF-539 = assay: Growth inhibition of human SF539 cells after 48 hrs by sulforhodamine B assay; format: functional; conditions: SF-539, 48 h
HOP-62 = assay: Growth inhibition of human HOP62 cells assessed as cell growth at 10 uM after 48 hrs by sulforhodamine B assay; format: functional; conditions: HOP-62, 48 h, read-out: Activity
A549 = assay: Growth inhibition of human A549/ATCC cells assessed as cell growth at 10 uM after 48 hrs by sulforhodamine B assay; format: functional; conditions: A549, 48 h, read-out: Activity
RPMI-8226 = assay: Growth inhibition of human RPMI8226 cells assessed as cell growth at 10 uM after 48 hrs by sulforhodamine B assay; format: functional; conditions: RPMI-8226, 48 h, read-out: Activity
CCRF-CEM [9] = assay: Growth inhibition of human CCRF-CEM cells assessed as cell growth at 10 uM after 48 hrs by sulforhodamine B assay; format: functional; conditions: read-out: Activity
[10] = read-out: LC50 (the source's name)

COc1cc(-c2nn(-c3cccc(NC(=O)c4ccccc4)c3)cc2-c2ccncc2)ccc1Cl
growth at 10 µM (T47D): 21.8% | growth at 10 µM (PC-3): 10.5% | growth at 10 µM (CAKI-1): 40.6% | GI50 (HT-29): 0.392 µM | TGI (HT-29): > 100 µM | CC50 (HT-29; [10]): > 100 µM | GI50 (KM12): 0.556 µM | IC50 (KM12): 0.56 µM | TGI (KM12): > 100 µM | CC50 (KM12; [10]): > 100 µM | GI50 (COLO 205): 0.522 µM | LC50 (concentration killing 50% of cells) (COLO 205): 68.4 µM | TGI (COLO 205): 3.23 µM | GI50 (NCI-H23): 2.02 µM | LC50 (NCI-H23): > 100 µM | TGI (NCI-H23): > 100 µM | GI50 (NCI-H226): 2.35 µM | TGI (NCI-H226): > 100 µM | CC50 (NCI-H226; [10]): > 100 µM | GI50 (CCRF-CEM [1]): 0.492 µM | LC50 (CCRF-CEM [1]): > 100 µM | TGI (CCRF-CEM [1]): > 100 µM | growth at 10 µM (RXF 393 [2]): -19.2% | growth at 10 µM (786-0): 21.3% | growth at 10 µM (A498): -23.2% | growth at 10 µM (OVCAR-5 [3]): 66.4% | growth at 10 µM (OVCAR-8): 19.6% | growth at 10 µM (SK-MEL-5 [4]): -49.4% | growth at 10 µM (SK-MEL-2): -42.5% | growth at 10 µM (Malme-3M): 22.4% | growth at 10 µM (LOX IMVI): 17.4% | growth at 10 µM (U-251): 13.5% | growth at 10 µM (HCT-15): 19.2% | growth at 10 µM [5]: 20.1% | growth at 10 µM (NCI-H322M): 52.3% | GI50 (BT-549): 1.33 µM | LC50 (50% lethal concentration) (BT-549): > 100 µM | TGI (BT-549): > 100 µM | GI50 (MCF7): 0.335 µM | LC50 (MCF7): > 100 µM | TGI (MCF7): > 100 µM | GI50 (DU-145): 0.78 µM | LC50 (DU-145): > 100 µM | TGI (DU-145): 54.7 µM | GI50 (RXF 393 [6]): 0.646 µM | LC50 (concentration killing 50% of cells) (RXF 393 [6]): > 100 µM | TGI (RXF 393 [6]): 6.34 µM | GI50 (OVCAR-5 [7]): 15 µM | LC50 (concentration killing 50% of cells) (OVCAR-5 [7]): > 100 µM | TGI (OVCAR-5 [7]): > 100 µM | GI50 (SK-MEL-5 [8]): 0.319 µM | LC50 (concentration killing 50% of cells) (SK-MEL-5 [8]): 7.1 µM | TGI (SK-MEL-5 [8]): 1.38 µM | GI50 (UACC-257): 0.859 µM | TGI (UACC-257): > 100 µM | CC50 (UACC-257; [10]): > 100 µM | GI50 (MDA-MB-435): 0.189 µM | IC50 (MDA-MB-435): 0.19 µM | TGI (MDA-MB-435): 0.551 µM | CC50 (MDA-MB-435; [10]): 12.3 µM | GI50 (SF-539): 0.387 µM | LC50 (concentration killing 50% of cells) (SF-539): > 100 µM | TGI (SF-539): 2.88 µM | growth at 10 µM (HOP-62): 27.1% | growth at 10 µM (A549): 4.81% | growth at 10 µM (RPMI-8226): 9.39% | growth at 10 µM (CCRF-CEM [9]): 2.06%
